Consider eight compounds from patent US6545002B1 (University of Virginia Patent Foundation, priority 1999, dated 2003).

Where two headings read alike, the source gives them in different places.

The target of experiment [1] is T1, human A3 receptors (hA3) (Homo sapiens, UniProt P0DMS8).
T1 construct: expressed in transfected cells; host or cells: HEK-293
T1 sequence (P0DMS8 1-318): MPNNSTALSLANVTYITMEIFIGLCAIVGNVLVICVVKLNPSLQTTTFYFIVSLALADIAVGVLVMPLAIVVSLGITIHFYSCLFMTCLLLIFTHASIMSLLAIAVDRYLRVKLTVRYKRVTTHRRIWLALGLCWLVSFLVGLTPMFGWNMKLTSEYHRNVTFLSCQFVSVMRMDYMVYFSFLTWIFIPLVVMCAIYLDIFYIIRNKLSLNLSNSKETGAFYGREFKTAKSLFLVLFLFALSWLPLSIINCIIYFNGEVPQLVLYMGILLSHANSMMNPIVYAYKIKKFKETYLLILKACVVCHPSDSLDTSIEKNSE
Briefly: Displacement of [125I]ABA binding at human A3 receptors expressed in HEK-293 cells. The following applies: Table 1; [125I]ABA, HEK-293; read-out: hA3 Ki or IC50. For orientation: Loss of bound radioactivity is the signal in a displacement assay; it reports binding, not function.

The target in a further experiment is T2, A3 receptors (r) (Rattus norvegicus, UniProt P28647).
T2 sequence (P28647 1-320): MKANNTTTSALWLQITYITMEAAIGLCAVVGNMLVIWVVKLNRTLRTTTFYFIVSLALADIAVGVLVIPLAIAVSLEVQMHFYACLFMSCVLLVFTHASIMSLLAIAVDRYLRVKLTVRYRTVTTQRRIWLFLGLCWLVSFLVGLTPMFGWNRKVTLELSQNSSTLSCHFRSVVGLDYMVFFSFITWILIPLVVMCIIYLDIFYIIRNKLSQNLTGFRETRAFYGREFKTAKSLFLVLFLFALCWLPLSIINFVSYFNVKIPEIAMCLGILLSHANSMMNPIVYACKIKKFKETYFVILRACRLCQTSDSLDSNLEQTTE
Briefly: Binding at rat A3 receptors, values marked (r) in Table 1.

Experiment [2] has as its target T3, recombinant human A1 receptors (hA1) (Homo sapiens, UniProt P30542).
T3 sequence (P30542 1-326): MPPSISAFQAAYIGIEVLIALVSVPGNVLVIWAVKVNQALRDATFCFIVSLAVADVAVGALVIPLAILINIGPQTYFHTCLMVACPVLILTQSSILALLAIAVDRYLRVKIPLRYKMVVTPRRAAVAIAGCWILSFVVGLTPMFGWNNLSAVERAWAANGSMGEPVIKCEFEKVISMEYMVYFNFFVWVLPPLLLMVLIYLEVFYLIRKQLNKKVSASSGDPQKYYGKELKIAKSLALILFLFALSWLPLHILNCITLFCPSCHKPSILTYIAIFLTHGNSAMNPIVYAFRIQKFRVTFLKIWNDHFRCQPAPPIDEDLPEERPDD
The experiment in a line: Radioligand binding ([3H]CPX) at recombinant human A1 receptors in HEK-293 cells.

The next experiment deals with T4, rat A1 receptors (rA1) (Rattus norvegicus, UniProt P25099).
T4 construct: to A1 receptors from rat cerebral cortical membranes; from tissue; host or cells: rat cerebral cortical (brain) membranes
T4 sequence (P25099 1-326): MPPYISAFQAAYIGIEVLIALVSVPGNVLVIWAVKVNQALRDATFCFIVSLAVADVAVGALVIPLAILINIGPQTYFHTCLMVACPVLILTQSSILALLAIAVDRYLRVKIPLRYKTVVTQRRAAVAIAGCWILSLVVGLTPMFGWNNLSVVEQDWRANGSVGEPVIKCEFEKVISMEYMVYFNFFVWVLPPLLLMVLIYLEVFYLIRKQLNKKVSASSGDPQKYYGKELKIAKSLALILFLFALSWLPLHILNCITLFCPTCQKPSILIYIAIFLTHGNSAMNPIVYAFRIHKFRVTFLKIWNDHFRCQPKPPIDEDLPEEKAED
The experiment in a line: Displacement of [3H]R-PIA binding in rat brain (cerebral cortical) membranes.

In the next experiment the target is T5, rat A2A receptors (rA2A) (Rattus norvegicus, UniProt P30543).
T5 construct: to A2A receptors from rat striatal membranes was performed as described; from tissue; host or cells: rat striatal membranes
The experiment in a line: Displacement of [3H]CGS 21680 binding in rat striatal membranes.

In experiment [3] the target is T6, human A2B receptors (hA2B) (Homo sapiens, UniProt P29275).
T6 construct: expressed in transfected cells; host or cells: HEK-293 (HEK-A2B, G418-selected)
T6 sequence (P29275 1-332): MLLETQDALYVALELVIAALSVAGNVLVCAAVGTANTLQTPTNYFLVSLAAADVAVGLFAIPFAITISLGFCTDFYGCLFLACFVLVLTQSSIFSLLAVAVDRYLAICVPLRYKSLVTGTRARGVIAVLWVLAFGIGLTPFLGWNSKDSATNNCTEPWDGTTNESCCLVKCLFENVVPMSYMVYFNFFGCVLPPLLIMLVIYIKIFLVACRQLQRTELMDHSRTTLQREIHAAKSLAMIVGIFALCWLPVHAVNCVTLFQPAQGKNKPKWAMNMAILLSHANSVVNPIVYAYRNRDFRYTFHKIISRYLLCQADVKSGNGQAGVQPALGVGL
The experiment in a line: Radioligand binding ([125I]ABOPX / [3H]ZM241385) at human A2B receptors expressed in HEK-293 cells. The following applies: for hA1/hA2B / hA2A/hA2B / hA3/hA2B / rA1/hA2B: Ki ratio.

In experiment [4] the target is recombinant human A2A receptors (hA2A) (Homo sapiens, UniProt P29274). The experiment in a line: Radioligand binding (125I-ZM241385) at recombinant human A2A receptors in HEK-293 cells.
Experimental: All non-radioactive compounds were initially dissolved in DMSO, and diluted with buffer to the final concentration, where the amount of DMSO never exceeded 2%. Incubations were terminated by rapid filtration over Whatman GF/B filters, using a Brandell cell harvester (Brandell, Gaithersburg, Md.). The tubes were rinsed three times with 3 mL buffer each.
At least six different concentrations of competitor, spanning 3 orders of magnitude adjusted appropriately for the IC50 of each compound, were used. IC50 values, calculated with the nonlinear regression method implemented in (Graph-Pad Prism, San Diego, Calif.), were converted to apparent Ki values as described.
The potency of the xanthine derivatives at human A2B receptors was evaluated using two binding assays. […] In order to determine selectivity, the xanthines were evaluated using standard binding assays at A1, A2A, and A3 receptors.
The subject of experiment [5] is myocardial infarction in dogs. Briefly: Ninety minute LAD coronary artery occlusion/reperfusion, infarct size by TTC staining. Type of experiment: in vivo, dog. The following applies: 200 nM intracoronary at 1 ml/min during occlusion and reperfusion, versus vehicle.
Experiment [6] addresses T1, human A3 receptors (hA3). Briefly: Displacement of [125I]AB-MECA binding at human A3 receptors expressed in HEK-293 cells (Table 4).
The mark [7] stands for this setting: read-out: hA1 Ki, values marked (h), Table 1, recombinant human A1, HEK 293.
Where [8] appears, read: Table 1, [3H]R-PIA, rat brain membranes, read-out: rA1 Ki or IC50.
Where [9] appears, read: Table 1, [3H]CGS 21680, rat striatal membranes, read-out: rA2A Ki or IC50.
The mark [10] stands for this setting: Table 1, [125I]ABOPX, HEK-293, read-out: hA2B Ki or IC50.
Where [11] appears, read: read-out: hA2A Ki, values marked (h), Table 1, recombinant human A2A, HEK 293.
Setting [12] is: read-out: Ki value at human A2B receptors.
[13] abbreviates: Table 4, unmarked value, first of two binding assays, read-out: hA2B Ki.
Setting [14] is: read-out: hA1 Ki, values marked (h)^a, Table 4, vs [3H]CPX, HEK-293.
Setting [15] is: read-out: hA2A Ki, values marked (h)^a, Table 4, vs [125I]ZM241385, HEK-293.

recombinant human A2A receptors (hA2A), sequence (P29274 whole entry, the tested form may be a part): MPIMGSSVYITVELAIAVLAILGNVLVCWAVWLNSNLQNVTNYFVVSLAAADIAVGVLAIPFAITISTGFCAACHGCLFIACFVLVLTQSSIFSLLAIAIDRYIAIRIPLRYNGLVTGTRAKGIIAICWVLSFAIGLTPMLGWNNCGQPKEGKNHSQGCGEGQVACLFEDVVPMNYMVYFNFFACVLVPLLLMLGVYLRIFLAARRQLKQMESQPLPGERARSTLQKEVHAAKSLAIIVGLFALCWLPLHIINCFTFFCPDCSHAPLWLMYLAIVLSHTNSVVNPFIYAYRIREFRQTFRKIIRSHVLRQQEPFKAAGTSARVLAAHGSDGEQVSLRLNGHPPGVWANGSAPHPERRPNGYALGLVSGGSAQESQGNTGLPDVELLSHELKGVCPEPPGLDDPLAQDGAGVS
T5 sequence (P30543 whole entry): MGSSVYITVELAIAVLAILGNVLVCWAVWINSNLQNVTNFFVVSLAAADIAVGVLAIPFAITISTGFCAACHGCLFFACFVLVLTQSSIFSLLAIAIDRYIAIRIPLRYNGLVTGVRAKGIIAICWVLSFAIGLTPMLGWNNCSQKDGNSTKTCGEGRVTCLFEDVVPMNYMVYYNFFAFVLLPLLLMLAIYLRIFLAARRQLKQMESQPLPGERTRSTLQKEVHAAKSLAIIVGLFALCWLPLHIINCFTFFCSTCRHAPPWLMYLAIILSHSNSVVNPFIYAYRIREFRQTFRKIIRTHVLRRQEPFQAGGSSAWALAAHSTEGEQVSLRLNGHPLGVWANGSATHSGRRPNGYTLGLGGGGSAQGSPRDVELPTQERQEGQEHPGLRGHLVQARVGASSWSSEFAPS

As a reminder, the Ki is the equilibrium dissociation constant of an inhibitor or competing ligand from its target. Take `CCCn1c(=O)c2[nH]c(-c3ccc(OCC(=O)O)cc3)nc2n(CCC)c1=O` [Compound 4a, 8-[4-[[[carboxy]methyl]oxy]phenyl]-1,3-dipropylxanthine]: the values for the Ki (on human A3 receptors (hA3) [1]; at A3 receptors (r); in experiment [2] (setting [7])) were 3910 nM, 75700 nM and 175 ± 57 nM, respectively.
Regarding `C=CCn1c(=O)c2[nH]c(-c3ccc(OCC(=O)O)cc3)nc2n(CC=C)c1=O` [Compound 5], the Ki on rat A1 receptors (rA1) (setting [8]) is 756 ± 147 nM; on rat A2A receptors (rA2A) (setting [9]), 4290 nM; in [3] (setting [10]), 141 ± 29 nM; at human A3 receptors (hA3) [1], 816 ± 91 nM; on A3 receptors (r), 173000 nM; in experiment [2] (setting [7]), 1660 nM. The Ki in experiment [4] (setting [11]) was determined as 2370 nM. Moreover, the hA1/hA2B in experiment [3] (Table 1) came out at 12. In addition, in experiment [3] (Table 1), the hA2A/hA2B is on record as 17. Besides, the hA3/hA2B in [3] (Table 1) was found to be 5.8.
In the case of `CCCCn1c(=O)c2[nH]c(-c3ccc(OCC(=O)O)cc3)nc2n(CCCC)c1=O` [Compound 6], the Ki worked out at 43.1 ± 9.9 nM at rat A1 receptors (rA1) (setting [8]); 874 ± 107 nM at rat A2A receptors (rA2A) (setting [9]); 48 ± 16.9 nM in experiment [3] (setting [10]); 90.3 ± 14.2 nM at human A3 receptors (hA3) [1]; 27500 nM at A3 receptors (r); 149 ± 83 nM in experiment [2] (setting [7]). Besides, the Ki in experiment [4] (setting [11]) turned out to be 2540 nM. For the same compound, the hA1/hA2B in experiment [3] (Table 1) is recorded as 3.1. In addition, in experiment [3] (Table 1), the hA2A/hA2B is 53. Also, the hA3/hA2B in [3] (Table 1) is recorded as 1.9.
For the compound `CCCn1c(=O)c2[nH]c(-c3ccc(OCC(=O)Nc4ccc(C#N)cc4)cc3)nc2n(CCC)c1=O` [Compound 27, 8-[4-[((4-Cyano)phenylcarbamoylmethyl)oxy]phenyl]-1,3-di-(n-propyl)xanthine], the Ki was 16.8 ± 3.6 nM at rat A1 receptors (rA1) (Table 2, read-out: rA1 Ki or IC50) and 612 ± 287 nM on rat A2A receptors (rA2A) (Table 2, read-out: rA2A Ki or IC50). Also, the “infarct size / infarct area (IA) as %LV or %RA” value in experiment [5] is given as “significantly reduced the infarct area”.
With `CCCn1c(=O)c2[nH]c(-c3ccc(OCC(=O)NN4C(=O)[C@H]5CC=CC[C@H]5C4=O)cc3)nc2n(CCC)c1=O` [Compound 52, 8-[4-[(Carboxymethyl)oxy]phenyl]-1,3-di-(n-propyl)xanthine N,N-(cis-1,2,3,6-Tetrahydrophthaloyl)hydrazide], the Ki was 36.4 ± 6.2 nM at rat A1 receptors (rA1) (Table 4, read-out: rA1 Ki); 689 ± 477 nM on rat A2A receptors (rA2A) (Table 4, read-out: rA2A Ki); 10 nM in experiment [3] (setting [12]); 370 ± 190 nM on human A3 receptors (hA3) [6]; 129 nM in experiment [2]; 301 nM in experiment [4]. For the same compound, in experiment [3] (Table 4), the rA1/hA2B is 3.6.
Take `CCCn1c(=O)c2[nH]c(-c3ccc(OCC(=O)NNC(=O)C4=C(C(=O)O)CCCC4)cc3)nc2n(CCC)c1=O` [Compound 55, 8-[4-[(Carboxymethyl)oxy]phenyl]-1,3-di-(n-propyl)xanthine N-[2-((1-Carboxy)-1-cyclohexene)-carbonyl]hydrazide]: the Ki is 47.2 ± 6.8 nM at rat A1 receptors (rA1) (Table 4, read-out: rA1 Ki); 422 ± 136 nM at rat A2A receptors (rA2A) (Table 4, read-out: rA2A Ki); 17.3 ± 6.3 nM in experiment [3] (setting [13]); 17 nM in experiment [3] (setting [12]); 438 ± 109 nM at human A3 receptors (hA3) [6]; 145 nM in experiment [2] (setting [14]). In experiment [4] (setting [15]), the Ki was 95.6 nM. Also, in experiment [3] (Table 4), the rA1/hA2B is 2.7.
Turning to `CCCn1c(=O)c2[nH]c(-c3ccc(OCC(=O)NN4C(=O)CC[C@H](NC(=O)C(F)(F)F)C4=O)cc3)nc2n(CCC)c1=O` [Compound 61], the Ki at rat A1 receptors (rA1) (Table 4, read-out: rA1 Ki) was 53.5 ± 6.5 nM; at rat A2A receptors (rA2A) (Table 4, read-out: rA2A Ki) it was 440 ± 106 nM; in [3] (setting [12]), 13 nM; on human A3 receptors (hA3) [6] it was 726 ± 245 nM; in experiment [2], 149 nM; in experiment [4] it was 178 nM. Also, in [3] (Table 4), the rA1/hA2B is 4.1.
For the compound `CCCn1c(=O)c2[nH]c(-c3ccc(OCC(=O)NNC(=O)CNC(=O)CNC(=O)OCc4ccccc4)cc3)nc2n(CCC)c1=O` [Compound 64, 8-[4-[(Carboxymethyl)oxy]phenyl]-1,3-di-(n-propyl)xanthine N-(N-Benzyloxycarbonyl-glycylglycinyl)hydrazide], the Ki on rat A1 receptors (rA1) (Table 4, read-out: rA1 Ki) was determined as 36 ± 6.6 nM; on rat A2A receptors (rA2A) (Table 4, read-out: rA2A Ki) it was 609 ± 95 nM; in experiment [3] (setting [13]) it was 10.8 ± 5 nM; in experiment [3] (setting [12]), 11 nM; at human A3 receptors (hA3) [6], 323 ± 47 nM; in [2] (setting [14]) it was 200 ± 22 nM. Also, in experiment [4] (setting [15]), the Ki was found to be 830 ± 84 nM. Moreover, the rA1/hA2B in experiment [3] (Table 4) was 3.3.
